In US20040109845A1, “Method for inhibiting articular cartilage matrix calcification” (priority 2001, published 2004):

What was measured:
[1] = test system: tTGase and Factor XIIIa expression in knee articular cartilage and medial meniscus; assay: Immunohistochemistry of cartilage organ culture; format: cell-based, human; settings: organ culture 48 hours
Procedure: Articular cartilage and medial menisci from normal donors were studied in cartilage organ culture in media supplemented with 1% FCS and 1% L-glutamine, as described in the Methods, following 48 hours of treatment with TGFβ 10 ng/ml, IL-1β (1 ng/ml), or medium alone.
Immunohistochemistry was performed as previously described in detail (30,33,34). In brief, immunohistochemical sections (5 microns) were pretreated with bovine testicular hyaluronidase (0.5 mg/ml at 37° C. for 30 min) and incubated in 5% normal goat or rabbit serum for 20 min prior to avidin/biotin peroxidase staining by the ABC method. Hematoxilin was used as the counterstain. Biotinylated anti-rabbit or anti-goat antibodies served as secondary antibodies. Levamisole was added to block endogenous alkaline phosphatase (AP). Negative controls were nonimmune rabbit or goat serum as a substitute for primary antibody.
Meniscal cells were taken from tissue slices removed from the central regions of the medial and lateral menisci. Where indicated, meniscal organ culture was performed by incubating these slices for b 48 hours in DMEM high glucose containing 1% FCS and 1% L-glutamine (and articular cartilage organ culture performed in the same manner, where indicated). Otherwise, we minced meniscal tissue with a scalpel, incubated in DMEM high glucose containing 2 mg/ml clostridial collagenase, 5% FCS, 1% L-glutamine, 100 units/ml Penicillin and 50 μg/ml Streptomycin (Omega Scientific, Tarzana, Calif.), and incubated on a gyratory shaker at 37° C. until the tissue fragments were digested. Residual multicellular aggregates were removed by sedimentation (1,000×g), and cells were washed three times in DMEM containing 5% FCS.

[2] = test system: TGase activity (tTGase and Factor XIIIa) in meniscal cells; assay: TGase activity in cultured knee meniscal cells (BP incorporation into N,N-dimethylcasein); format: cell-based, human; settings: monolayer culture, 48-72 hrs; IL-1β, TGFβ, TNFα 10 ng/ml; Noc-12 2.5-25 μM; Sin-1 1-10 μM
Procedure: Meniscal cells were maintained in DMEM high glucose and supplemented with 10% FCS, 1% L-glutamine, 100 units/ml Penicillin and 50 μg/ml Streptomycin (Omega Scientific, Tarzana, Calif.) and cultured at 37° C. with 5% CO2. In monolayer cell culture studies involving stimulation by TGFE[…] or IL-1, the cells were placed in DMEM high glucose containing 1% FCS, 1% L-glutamine, 100 units/ml Penicillin and 50 μg/ml Streptomycin. In all other studies, the cells were cultured in complete medium (as described above). Only primary or first passage meniscal cells were studied.
TGase activity was measured by modifications to a previously described method (35). Specifically, we coated 96 well ImmunoModule plates (Nunc, Rochester, N.Y.) with 200 μl of 20 mg/ml N,N-dimethylcasein for 1 hr at 23° C. The N,N-dimethylcasein was removed and nonspecific protein binding was blocked by adding 3% BSA in 100 mM Tris, pH 8.5, 150 mM NaCl, 0.05% Tween-20 (TBST) to each well for an additional 1 hr at 23° C. Then, aliquots of 5 μg of total cellular protein from meniscal or TC28 cells that had been lysed and sonicated (in 5 mM Tris HCl, 0.25 M sucrose, 0.2 mM MgSO4, 2 mM DTT, 0.4 mM PMSF, 0.4% Triton X100, pH 7.5), were added to the plate in triplicate. To measure TGase in extracts of whole menisci, 50 mg dry weight of tissue from the central zone of each medial meniscus was used as the source (after solubilization and sonication) for aliquots of 5 μg of soluble protein. Fifty μl of solution A (100 mM Tris, pH 8.5 and 20 mM CaCl2) was added to all samples for TGase assay, followed by the addition of 50 μl of solution B (100 mM Tris, pH 8.5, 40 mM DTT and freshly added 2 mM 5-(Biotinamido) pentylamine (BP)). The plates were incubated for 1 hr at 37° C. The wells were washed once with TBST containing 1 mM EDTA and then three times with TBST. One hundred μl of a 1:500 dilution of streptavidin-AP in 3% BSA/TBST was added to each well for 1 hr at 23° C. The wells were washed twice with TBST, and 200 μl of solution C (100 mM Tris, pH 9.8, mM NaCl, 5 mM MgCl2, 1 mg/ml of freshly added p-nitrophenylphosphate) was added to each well. Readings at OD410 were taken over 15 minutes. Purified guinea pig liver TGase (Sigma) was used to prepare a standard curve. TGase activity was designated as the amount of BP incorporated into casein (per μg cellular DNA, determined chromogenically following precipitation in perchlorate (28), or, where indicated, per μg protein, determined as previously described (28)).
To directly induce expression of each TGase in meniscal cells, 5×10^5 primary cells were plated in 60 mm dishes and allowed to adhere overnight. We modified (28) the manufacturer's protocol for the Lipofectamine Plus kit (Life Technologies, Grand Island, N.Y.). To optimize the transfection of meniscal cells, we added 2.0 ml of serum-free DMEM/F12 containing 0.00015% digitonin to washed cells and incubated for 3 min at 23° C. Then, media was removed, and cells transfected at 37° C. for 7 hrs, followed by removal of the media and addition of complete DMEM high glucose medium. Transfection of each TGase into TC28 cells was done by the same procedure, with the exception that the digitonin permeabilization step was omitted.

Factor XIIIa expression ([1]; knee articular cartilage): up-regulated
tTGase expression ([1]; knee articular cartilage): up-regulated tTGase expression
Substance: IL-1β: Human recombinant IL-1β purchased from R&D Systems
tTGase and Factor XIIIa immunostaining ([1]; knee articular cartilage and meniscal cartilage slices, TGFβ 10 ng/ml, IL-1β 1 ng/ml): induced increased tTGase and Factor XIIIa immunostaining
Induction of TGase activity in cultured normal knee meniscal cells [2]: induced increased TGase activity in a donor age-dependent manner
